# Results reported in ChEMBL document CHEMBL5729557, “5-membered heteroaryl carboxamide compounds for treatment of HBV” (2023).
# Assay: Assay Measuring Activity of Test Compounds on Viral Production from HepAD38 Cells: HepAD38 cells grown in a T-150 flask (Corning, cat #: 430825) with Growth Medium (DMEM/F12 (1:1) (Hyclone, cat #: SH30023.02), 1× Pen/Strep (Invitrogen, cat #: 15140-122), 10% FBS (Tissue Culture Biologics, cat #: 101), 250 μg/mL G418 (Alfa Aesar, cat #: J62671), 1 μg/mL Tetracycline (Teknova, cat #: T3320)) were detached with 0.25% trypsin-EDTA to (Invitrogen, cat #: 25200-056). Tetracycline-free treatment medium (15 mL DMEM/F12 (1:1) 1× Pen/step, with 2% FBS, Tet-system approved (Clontech, cat #: 631106) were then added to mix, transferred into a 50 ml conical tube (Falcon, cat #: 21008-918,) and spun at 1300 rpm for 5 min. Pelleted cells were then re-suspended/washed with 50 mL of 1×DPBS (Invitrogen, cat #: 14190-136) 2 times and 50 mL treatment medium twice. HepAD38 cells were then re-suspended with 10 mL of treatment medium, syringed and counted. Wells of 96-well clear bottom TC plate (Corning, cat #: 3904,) were seeded at 50,000 cells/well in 180 μL of treatment medium, and 20 μL of either 10% DMSO (Sigma, cat #: D4540) as controls or a 10× solution of test compounds in 10% DMSO in treatment media was added for a final compound concentration starting at 10 μM, and plates were incubated in 5% CO2 incubator at 37° C. for 5 days.Subsequently viral load production was assayed by quantitative PCR (qPCR) of the HBV core sequence. PCR reaction mixture containing forward primers HBV-f 5′-CTGTGCCTTGGGTGGCTTT-3′ (IDT DNA), Reverse primers HBV-r 5′-[…]-3′ (IDT DNA), Fluorescent TaqMan™ Probes HBV-probe 5′-FAM/AGCTCCAAA/ZEN/[…]/3IABkFQ-3′ (IDT DNA), 10 μL/well of PerfeCTa® qPCR ToughMix® (Quanta Biosciences, Cat #: 95114-05K), and 6 μL/well of DEPC water (Alfa Aesar, cat #: J62087) was prepared. […] of supernatant was added to 16 μL of the reaction mixture in a qPCR plate (Applied Biosytems, Cat #: 4309849), sealed with a film (Applied Biosystems, Cat #: 4311971), centrifuged for a few seconds, and subsequently run on an Applied Biosystems VIIA7. The PCR mixture was incubated at 45° C. for 5 min, then 95° C. for 10 min, followed by 40 cycles of 10 seconds at 95° C. and 20 seconds at 60° C. Viral load was quantified against known HBV DNA standards by using ViiA™ 7 Software. Viral load in the supernatant from wells with treated cells were compared against viral load in supernatant from DMSO control wells (>3 per plate). Cell viability assay was performed with CellTiter-Glo Luminescent Cell Viability Assay (Promega, cat #: G7573) with modification. Mixed appropriate amount of CellTiter-Glo (CTG) 1×DPBS in a 1:1 ratio, added 100 uL of the mixture to each well followed completely removal of all supernatant in each well without touching cell surface. Incubated the plate at room temperature for 10 min on an orbital shaker, and then read the plate with a plate reader (TECAN M1000 or Envision).
# Details: not given
row,Compound,EC50
1,Cn1nc(C2CC3COC(=O)CC3C2)c(C(=O)Nc2ccc(F)c(Cl)c2)c1N (centres undefined),< 100 nM
2,COc1ccc([C@H]2CC[C@H](c3nn(C)c(N)c3C(=O)Nc3ccc(F)c(Cl)c3)C2)cc1,< 100 nM
3,COc1ccc([C@@H]2CC[C@H](c3nn(C)c(N)c3C(=O)Nc3ccc(F)c(Cl)c3)C2)cc1,< 100 nM and in the range around 300 nM

# Same assay, conditions: HePAD38
row,Compound,EC50
1,CCOC(=O)C=C1CC2CC(c3nn(C)c(N)c3C(=O)Nc3ccc(F)c(Cl)c3)CC2C1 (centres undefined),< 100 nM
2,Cn1nc(C2CC3COC(=O)CC3C2)c(C(=O)Nc2ccc(F)c(Cl)c2)c1N (centres undefined),< 100 nM
3,COC1CC2CC(c3nn(C)c(N)c3C(=O)Nc3ccc(F)c(Cl)c3)CC2C1 (centres undefined),< 100 nM
4,Cn1nc([C@@H]2CC3CC(O)(CS(C)(=O)=O)C[C@@H]3C2)c(C(=O)Nc2ccc(F)c(Cl)c2)c1N (some centres undefined),< 100 nM
5,Cn1cc(C(=O)Nc2ccc(F)c(Cl)c2)c(C2CC3CC(O)(CS(C)(=O)=O)CC3C2)n1 (centres undefined),in the range around 5250 nM
6,Cn1cc([C@@H]2CC[C@H](c3nn(C)c(N)c3C(=O)Nc3ccc(F)c(Cl)c3)C2)cn1,< 100 nM
7,Cn1nc(C2CC3CC4(CC3C2)OCCO4)c(C(=O)Nc2ccc(F)c(Cl)c2)c1N (centres undefined),< 100 nM
8,Cn1nc(C2CCC(c3ccc(OC(F)(F)F)cc3)C2)c(C(=O)Nc2ccc(F)c(Cl)c2)c1N (centres undefined),in the range around 5250 nM
9,Cn1nc(C2CCC(c3cccnc3)C2)c(C(=O)Nc2ccc(F)c(Cl)c2)c1N (centres undefined),< 100 nM
10,Cn1nc([C@@H]2CC3CC(O)(CS(=O)(=O)CCCN4CCNCC4=O)C[C@@H]3C2)c(C(=O)Nc2ccc(F)c(Cl)c2)c1N (some centres undefined),in the range around 5250 nM
11,Cn1nc([C@@H]2CC3COC(=O)C[C@H]3C2)c(C(=O)Nc2ccc(F)c(Cl)c2)c1N (some centres undefined),in the range around 300 nM
12,Cn1nc(C2CC3CC(O)(CSCCO)CC3C2)c(C(=O)Nc2ccc(F)c(Cl)c2)c1N (centres undefined),< 100 nM
13,Cn1nc(C2CC3CC(C)(O)CC3C2)c(C(=O)Nc2ccc(F)c(Cl)c2)c1N (centres undefined),< 100 nM
14,Cn1nc(C2CC3CC(O)(COCC(F)(F)F)CC3C2)c(C(=O)Nc2ccc(F)c(Cl)c2)c1N (centres undefined),< 100 nM
15,COc1cc(-c2nccn2C)ccc1[C@H]1CC[C@@H](c2nn(C)c(N)c2C(=O)Nc2ccc(F)c(Cl)c2)C1,in the range around 300 nM
16,COc1cc(-c2ncc[nH]2)ccc1[C@@H]1CC[C@@H](c2nn(C)c(N)c2C(=O)Nc2ccc(F)c(Cl)c2)C1,< 100 nM
17,COc1cc(-c2cn(C)cn2)ccc1[C@@H]1CC[C@@H](c2nn(C)c(N)c2C(=O)Nc2ccc(F)c(Cl)c2)C1,< 100 nM
18,Cn1nc([C@H]2CC[C@@H](c3ccccc3)C2)c(C(=O)Nc2ccc(F)c(Cl)c2)c1N,< 100 nM
19,Cn1nc(C2CC3CC(N4CCCS4(=O)=O)CC3C2)c(C(=O)Nc2ccc(F)c(Cl)c2)c1N (centres undefined),< 100 nM
20,Cn1nc(C2CC3CNCC3C2)c(C(=O)Nc2ccc(F)c(Cl)c2)c1N (centres undefined),in the range around 5250 nM
21,Cn1nc(C2CC3CC4(CNC(=O)C4)CC3C2)c(C(=O)Nc2ccc(F)c(Cl)c2)c1N (centres undefined),< 100 nM
22,Cn1nc(C2CC3CSCC3C2)c(C(=O)Nc2ccc(F)c(Cl)c2)c1N (centres undefined),< 100 nM
23,CCC1OCC2(CC3C[C@H](c4nn(C)c(N)c4C(=O)Nc4ccc(F)c(Cl)c4)C[C@H]3C2)O1 (some centres undefined),< 100 nM
24,COc1cc(-c2nccs2)ccc1C1CCC(c2nn(C)c(N)c2C(=O)Nc2ccc(F)c(Cl)c2)C1 (centres undefined),in the range around 5250 nM

row,Compound,EC50
1,COc1ccc([C@H]2CC[C@H](c3nn(C)c(N)c3C(=O)Nc3ccc(F)c(Cl)c3)C2)cc1,< 100 nM
2,CNC(=O)N1CC2CC(c3nn(C)c(N)c3C(=O)Nc3ccc(F)c(Cl)c3)CC2C1 (centres undefined),< 100 nM
3,Cn1nc([C@@H]2CC[C@@H](c3ccccc3)C2)c(C(=O)Nc2ccc(F)c(Cl)c2)c1N,< 100 nM
4,Cn1cc([C@@H]2CC[C@@H](c3nn(C)c(N)c3C(=O)Nc3ccc(F)c(Cl)c3)C2)cn1,in the range around 300 nM
5,CCOC(=O)c1c(C2CCC(c3ccccc3)C2)noc1N (centres undefined),in the range around 300 nM
6,CCOC(=O)CC1CC2CC(c3nn(C)c(N)c3C(=O)Nc3ccc(F)c(Cl)c3)CC2C1 (centres undefined),< 100 nM
7,CC(N1CC2CC(c3nn(C)c(N)c3C(=O)Nc3ccc(F)c(Cl)c3)CC2C1)C(F)(F)F (centres undefined),< 100 nM
8,Cn1nc(C2CC3CC(NS(=O)(=O)C(F)(F)F)CC3C2)c(C(=O)Nc2ccc(F)c(Cl)c2)c1N (centres undefined),< 100 nM
9,Cn1nc([C@H]2CC3COC(=O)C[C@H]3C2)c(C(=O)Nc2ccc(F)c(Cl)c2)c1N (some centres undefined),< 100 nM
10,Cn1nc([C@@H]2CC3CC(O)(CN4CCCCC4)C[C@H]3C2)c(C(=O)Nc2ccc(F)c(Cl)c2)c1N (some centres undefined),in the range around 300 nM
11,Cn1nc([C@@H]2CC3CC(O)(CS(=O)(=O)C4CC4)C[C@@H]3C2)c(C(=O)Nc2ccc(F)c(Cl)c2)c1N (some centres undefined),< 100 nM
12,CC(C)OCC1(O)CC2C[C@@H](c3nn(C)c(N)c3C(=O)Nc3ccc(F)c(Cl)c3)C[C@@H]2C1 (some centres undefined),in the range around 300 nM
13,Cn1nc([C@@H]2CC[C@H](c3ccccc3)C2)c(C(=O)Nc2ccc(F)c(Cl)c2)c1N,< 100 nM
14,COc1cc(-c2nccn2C)ccc1[C@@H]1CC[C@@H](c2nn(C)c(N)c2C(=O)Nc2ccc(F)c(Cl)c2)C1,< 100 nM
15,Cn1nc([C@@H]2CC3CC(=NO)C[C@@H]3C2)c(C(=O)Nc2ccc(F)c(Cl)c2)c1N (some centres undefined),< 100 nM
16,CC[S+]([O-])C1CC2CC(c3nn(C)c(N)c3C(=O)Nc3ccc(F)c(Cl)c3)CC2C1 (centres undefined),< 100 nM
17,Cn1nc([C@H]2CC3CC(=NO)C[C@@H]3C2)c(C(=O)Nc2ccc(F)c(Cl)c2)c1N (some centres undefined),< 100 nM
18,Cn1nc(C2CC3CC(NS(C)(=O)=O)CC3C2)c(C(=O)Nc2ccc(F)c(Cl)c2)c1N (centres undefined),< 100 nM
19,COc1cc(-c2ncc[nH]2)ccc1[C@H]1CC[C@@H](c2nn(C)c(N)c2C(=O)Nc2ccc(F)c(Cl)c2)C1,in the range around 5250 nM
20,CC(C)C1(O)CC2C[C@@H](c3nn(C)c(N)c3C(=O)Nc3ccc(F)c(Cl)c3)C[C@H]2C1O (some centres undefined),< 100 nM
21,Cn1nc([C@@H]2CC3CC(O)(CSC(C)(C)C)C[C@@H]3C2)c(C(=O)Nc2ccc(F)c(Cl)c2)c1N (some centres undefined),< 100 nM
22,Cn1cc(-c2ccc([C@H]3CC[C@H](c4nn(C)c(N)c4C(=O)Nc4ccc(F)c(Cl)c4)C3)cc2)cn1,< 100 nM
23,CNC(=O)C1CC2CC(c3nn(C)c(N)c3C(=O)Nc3ccc(F)c(Cl)c3)CC2C1 (centres undefined),< 100 nM
24,COc1cc(C(O)NCCN)ccc1C1CCC(c2nn(C)c(N)c2C(=O)Nc2ccc(F)c(Cl)c2)C1 (centres undefined),in the range around 300 nM

row,Compound,EC50
1,Cn1nc([C@@H]2CC3CC(O)(CS(=O)(=O)C(C)(C)C)C[C@H]3C2)c(C(=O)Nc2ccc(F)c(Cl)c2)c1N (some centres undefined),< 100 nM
2,Cn1nc([C@@H]2CC3CC(O)(CSCCN4CCOCC4)C[C@H]3C2)c(C(=O)Nc2ccc(F)c(Cl)c2)c1N (some centres undefined),< 100 nM
3,Cn1nc([C@@H]2CC3CC(O)(CSCCO)C[C@H]3C2)c(C(=O)Nc2ccc(F)c(Cl)c2)c1N (some centres undefined),< 100 nM
4,Cn1nc(C2CC3CC(C(=O)O)CC3C2)c(C(=O)Nc2ccc(F)c(Cl)c2)c1N (centres undefined),< 100 nM
5,CC(=O)Nc1ccc(C2CCC(c3nn(C)c(N)c3C(=O)Nc3ccc(F)c(Cl)c3)C2)cc1 (centres undefined),< 100 nM
6,Cn1nc(C2CCC(c3ccccc3)C2)c(C(=O)Nc2cc(F)c(F)c(Br)c2)c1N (centres undefined),in the range around 300 nM
7,COc1cccc(C2CCC(c3nn(C)c(N)c3C(=O)Nc3ccc(F)c(Cl)c3)C2)c1 (centres undefined),< 100 nM
8,Cn1nc(C2CCC(c3ccc(F)cc3)C2)c(C(=O)Nc2ccc(F)c(Cl)c2)c1N (centres undefined),< 100 nM
9,Cn1nc(C2CC3CC(N4CCNC4=O)CC3C2)c(C(=O)Nc2ccc(F)c(Cl)c2)c1N (centres undefined),< 100 nM
10,Cn1nc(C2CC3CC(S(C)(=O)=O)CC3C2)c(C(=O)Nc2ccc(F)c(Cl)c2)c1N (centres undefined),< 100 nM
11,Cn1nc(C2CCC(c3cnc(C(F)(F)F)s3)C2)c(C(=O)Nc2ccc(F)c(Cl)c2)c1N (centres undefined),in the range around 5250 nM
12,Cn1nc([C@@H]2CC3CNC(=O)C[C@H]3C2)c(C(=O)Nc2ccc(F)c(Cl)c2)c1N (some centres undefined),< 100 nM
13,CNC1CC2CC(c3nn(C)c(N)c3C(=O)Nc3ccc(F)c(Cl)c3)CC2C1 (centres undefined),in the range around 300 nM
14,Cn1cc([C@H]2CC[C@@H](c3nn(C)c(N)c3C(=O)Nc3ccc(F)c(Cl)c3)C2)cn1,< 100 nM
15,Cn1nc([C@@H]2CC3CNC(=O)C[C@@H]3C2)c(C(=O)Nc2ccc(F)c(Cl)c2)c1N (some centres undefined),in the range around 300 nM
16,Cn1nc(C2CC3CC(CC(N)=O)CC3C2)c(C(=O)Nc2ccc(F)c(Cl)c2)c1N (centres undefined),< 100 nM
17,CN(C)C(=O)CC1(O)CC2CC(c3nn(C)c(N)c3C(=O)Nc3ccc(F)c(Cl)c3)CC2C1 (centres undefined),< 100 nM
18,Cn1nc(C2CC3CC(NCCO)CC3C2)c(C(=O)Nc2ccc(F)c(Cl)c2)c1N (centres undefined),in the range around 300 nM
19,Cn1nc([C@@H]2CC3CC(O)(CS(=O)(=O)CCO)C[C@H]3C2)c(C(=O)Nc2ccc(F)c(Cl)c2)c1N (some centres undefined),< 100 nM
20,Cn1cc(C2CC3CC(c4nn(C)c(N)c4C(=O)Nc4ccc(F)c(Cl)c4)CC3C2)cn1 (centres undefined),< 100 nM
21,Cn1nc(C2CC3CC(O)(CS(=O)(=O)CCCN4CCNC(=O)C4)CC3C2)c(C(=O)Nc2ccc(F)c(Cl)c2)c1N (centres undefined),in the range around 5250 nM
22,CN(C1CC2CC(c3nn(C)c(N)c3C(=O)Nc3ccc(F)c(Cl)c3)CC2C1)S(C)(=O)=O (centres undefined),< 100 nM
23,Cn1nc(C2CCC(c3ccccc3)C2)c(C(=O)Nc2ccc(F)c(C#N)c2)c1N (centres undefined),< 100 nM
